In US20180214428A1, “3-(1H-INDOL-2-YL)-1H-PYRAZOLO[3,4-B]PYRIDINES AND THERAPEUTIC USES THEREOF” (Samumed, LLC, priority 2015, published 2018) one finds EC50 and inhibition data, which are given here for 23 compounds.

The test system of this assay is IL-6. Nature of the assay: IL-6 inhibition in LPS-stimulated THP-1 monocytes (HTRF). The conditions noted are these: Homo sapiens, THP-1 cells; for pEC50: 500 ng/mL LPS, 22 h, HTRF IL-6 readout, 10-point dose-response from 10 μM; for inhibition at 10 µM: LPS stimulated, given only where EC50 >10 μM, top concentration 10 μM, read-out: percentage in parentheses beside EC50 >10 (IL-6 inhibition). The class given is cell-based, human. As to the method:
Human monocyte cell line (THP-1 cells; Catalog # TIB-202, ATCC, Manassas, Va.) were cultured in Roswell Park Memorial Institute (RPMI) 1640 Medium (Catalog #21870-100, Buffalo, N.Y.) with 1% L-glutamine, 1% HEPES, 1% Sodium Pyruvate, 2% Sodium Bicarbonate supplemented with 100 units/mL penicillin, 50 μg/mL streptomycin, 2-mercaptoethanol (0.05 mM) [basal medium] and 10% fetal bovine serum (Catalog #16140089, Life Technologies, Carlsbad, Calif.) at 37° C. and 5% CO2.
THP-1 cells were cultured in basal media with 1% FBS for 24 hours before the start of the assay. Each compound was dissolved in DMSO as a 10 mM stock and used to prepare compound source plates. Serial dilution (1:3, 10-point dose-response curves starting from 10 μM) and compound transfer was performed using the ECHO 550 (Labcyte, Sunnyvale, Calif.) into 384-well white low volume assay plates (Greiner Bio-One) with appropriate DMSO backfill for a final DMSO concentration of 0.1%. THP-1 cells were plated at 5000 cells/well in the 384-well plates and incubated at 37° C. for 2 h. 500 ng/mL of LPS was added after 2 hours and cells were incubated for another 22 hours at 37° C. Plates were spun in a centrifuge for 1 minute at […] and a mixture of anti-IL6 XL665, and anti-IL6 Cryptate diluted in reconstitution buffer (Cisbio Inc.) was added to each well. Following incubation for 3 hrs at room temperature, Homogeneous Time-Resolved Fluorescence (HTRF) was measured using the Envision (Perkin Elmer) at 665 nm and […]. The ratio of fluorescence at 665 nm to 620 nm was used as a readout for IL6 quantification. All samples were processed in duplicate. Readings were normalized to DMSO treated cells and normalized activities were utilized for EC50 calculations using the dose-response log (inhibitor) vs. response variable slope (four parameters) nonlinear regression feature available in GraphPad Prism 5.0 (or Dotmatics). For EC50 of >10 μM, the percent inhibition at 10 μM is provided.

pEC50: −log10 of the molar value.

In the case of `O=C(Nc1cncc(-c2cnc3[nH]nc(-c4cc5c(-c6ccccc6F)cccc5[nH]4)c3c2)c1)C1CCCC1` [Compound 66, N-(5-(3-(4-(2-Fluorophenyl)-1H-indol-2-yl)-1H-pyrazolo[3,4-b]pyridin-5-yl)pyridin-3-yl)cyclopentanecarboxamide], the pEC50 was 5.01. On the same count and under the same terms, to `c1ccc(CNCc2cncc(-c3cnc4[nH]nc(-c5cc6ccccc6[nH]5)c4c3)c2)cc1` [Compound 250, 1-(5-(3-(1H-Indol-2-yl)-1H-pyrazolo[3,4-b]pyridin-5-yl)pyridin-3-yl)-N-benzylmethanamine] belongs 5.40; to `FC1(F)CCN(Cc2cncc(-c3cnc4[nH]nc(-c5cc6ncccc6[nH]5)c4c3)c2)C1` [Compound 504, 5-(5-((3,3-Difluoropyrrolidin-1-yl)methyl)pyridin-3-yl)-3-(1H-pyrrolo[3,2-b]pyridin-2-yl)-1H-pyrazolo[3,4-b]pyridine], 6.94. On the same count and under the same terms, with `c1ccc(-c2cnc3[nH]nc(-c4cc5c(-c6ccncc6)cccc5[nH]4)c3c2)nc1` [Compound 120, 5-(Pyridin-2-yl)-3-(4-(pyridin-4-yl)-1H-indol-2-yl)-1H-pyrazolo[3,4-b]pyridine] the figure was 6.99. `Fc1cccc(-c2cccc3[nH]c(-c4n[nH]c5ncc(-c6ccncc6)cc45)cc23)c1` [Compound 15, 3-(4-(3-Fluorophenyl)-1H-indol-2-yl)-5-(pyridin-4-yl)-1H-pyrazolo[3,4-b]pyridine]: the pEC50 was less than 5.00 and the inhibition at 10 µM was determined as 55.9%. For `O=C(Nc1cncc(-c2cnc3[nH]nc(-c4cc5c(-c6cccc(F)c6)cccc5[nH]4)c3c2)c1)C1CCCCC1` [Compound 19, N-(5-(3-(4-(3-Fluorophenyl)-1H-indol-2-yl)-1H-pyrazolo[3,4-b]pyridin-5-yl)pyridin-3-yl)cyclohexanecarboxamide], in that order: less than 5.00 and 19.2%. The compound `CC(C)C(=O)Nc1cncc(-c2cnc3[nH]nc(-c4cc5c(N6CCN(C)CC6)cccc5[nH]4)c3c2)c1` [Compound 209, N-(5-(3-(4-(4-Methylpiperazin-1-yl)-1H-indol-2-yl)-1H-pyrazolo[3,4-b]pyridin-5-yl)pyridin-3-yl)isobutyramide] had a pEC50 of 5.92. On to `Fc1ccccc1-c1cccc2[nH]c(-c3n[nH]c4ncc(C5CCNCC5)cc34)cc12` [Compound 539, 3-(4-(2-Fluorophenyl)-1H-indol-2-yl)-5-(piperidin-4-yl)-1H-pyrazolo[3,4-b]pyridine], for which the pEC50 is 5.44.

Consider `O=C(Nc1cncc(-c2cnc3[nH]nc(-c4cc5ccccc5[nH]4)c3c2)c1)C1CCCCC1` [Compound 249, N-(5-(3-(1H-Indol-2-yl)-1H-pyrazolo[3,4-b]pyridin-5-yl)pyridin-3-yl) cyclohexanecarboxamide], for which the pEC50 was less than 5.00 and the inhibition at 10 µM amounted to 14.2%.

In the case of `Oc1cncc(-c2cnc3[nH]nc(-c4cc5c(-c6cccs6)cccc5[nH]4)c3c2)c1` [Compound 711, 5-(3-(4-(Thiophen-2-yl)-1H-indol-2-yl)-1H-pyrazolo[3,4-b]pyridin-5-yl) pyridin-3-ol], the negative logarithm of the EC50 (pEC50) is 5.71. The same measure, in the same setting: to `CC(C)(C)CC(=O)Nc1cncc(-c2cnc3[nH]nc(-c4cc5c(-c6ccccc6F)cccc5[nH]4)c3c2)c1` [Compound 61, N-(5-(3-(4-(2-Fluorophenyl)-1H-indol-2-yl)-1H-pyrazolo[3,4-b]pyridin-5-yl)pyridin-3-yl)-3,3-dimethylbutanamide] belongs 5.33. `CN1CCN(c2cccc3[nH]c(-c4n[nH]c5ncc(-c6ccncc6)cc45)cc23)CC1` [Compound 218, 3-(4-(4-Methylpiperazin-1-yl)-1H-indol-2-yl)-5-(pyridin-4-yl)-1H-pyrazolo[3,4-b]pyridine] had a pEC50 of 6.97.

In turn, `c1cncc(-c2cnc3[nH]nc(-c4cc5ccccc5[nH]4)c3c2)c1` [Compound 231, 3-(1H-Indol-2-yl)-5-(pyridin-3-yl)-1H-pyrazolo[3,4-b]pyridine] showed a pEC50 of 7.72. On the same count and under the same terms, with `c1ccc(CNCc2cncc(-c3cnc4[nH]nc(-c5cc6ncccc6[nH]5)c4c3)c2)cc1` [Compound 502, 1-(5-(3-(1H-Pyrrolo[3,2-b]pyridin-2-yl)-1H-pyrazolo[3,4-b]pyridin-5-yl)pyridin-3-yl)-N-benzylmethanamine] the figure was 5.22; with `O=C(Nc1cncc(-c2cnc3[nH]nc(-c4cc5c(-c6ccncc6)cccc5[nH]4)c3c2)c1)C1CCCCC1` [Compound 115, N-(5-(3-(4-(Pyridin-4-yl)-1H-indol-2-yl)-1H-pyrazolo[3,4-b]pyridin-5-yl)pyridin-3-yl)cyclohexanecarboxamide], 6.23; with `Fc1cccc(-c2cccc3[nH]c(-c4n[nH]c5ncc(-c6cccnc6)cc45)cc23)c1` [Compound 2, 3-(4-(3-Fluorophenyl)-1H-indol-2-yl)-5-(pyridin-3-yl)-1H-pyrazolo[3,4-b]pyridine], 7.82.

The compound `CN1CCN(c2cccc3[nH]c(-c4n[nH]c5ncc(-c6cncnc6)cc45)cc23)CC1` [Compound 227, 3-(4-(4-Methylpiperazin-1-yl)-1H-indol-2-yl)-5-(pyrimidin-5-yl)-1H-pyrazolo[3,4-b]pyridine] showed a pEC50 of 5.41. Consider `Cc1ccncc1-c1cnc2[nH]nc(-c3cc4c(-c5cc(F)cc(CNS(C)(=O)=O)c5)cccc4[nH]3)c2c1` [Compound 455, N-(3-Fluoro-5-(2-(5-(4-methylpyridin-3-yl)-1H-pyrazolo[3,4-b]pyridin-3-yl)-1H-indol-4-yl)benzyl)methanesulfonamide], for which the pEC50 is less than 5.00 and the inhibition at 10 µM was 54.8%. Take `CC(C)CC(=O)Nc1cncc(-c2cnc3[nH]nc(-c4cc5c(N6CCN(C)CC6)cccc5[nH]4)c3c2)c1` [Compound 202, 3-Methyl-N-(5-(3-(4-(4-methylpiperazin-1-yl)-1H-indol-2-yl)-1H-pyrazolo[3,4-b]pyridin-5-yl)pyridin-3-yl)butanamide]: the pEC50 was less than 5.00 and the inhibition at 10 µM was found to be 0%. On to `Fc1cccc(-c2cccc3[nH]c(-c4n[nH]c5ncc(-c6cncc(OCc7ccccc7)c6)cc45)cc23)c1` [Compound 520, 5-(5-(Benzyloxy)pyridin-3-yl)-3-(4-(3-fluorophenyl)-1H-indol-2-yl)-1H-pyrazolo[3,4-b]pyridine], for which the pEC50 was less than 5.00 and the inhibition at 10 µM came to 31.3%. For `CCCC(=O)Nc1cncc(-c2cnc3[nH]nc(-c4cc5c(-c6cccc(F)c6)cccc5[nH]4)c3c2)c1` [Compound 14, N-(5-(3-(4-(3-Fluorophenyl)-1H-indol-2-yl)-1H-pyrazolo[3,4-b]pyridin-5-yl)pyridin-3-yl)butyramide], in that order: less than 5.00 and 20.3%.

`c1cc(-c2ccncc2)c2cc(-c3n[nH]c4ncc(-c5ccncc5)cc34)[nH]c2c1` [Compound 111, 5-(Pyridin-4-yl)-3-(4-(pyridin-4-yl)-1H-indol-2-yl)-1H-pyrazolo[3,4-b]pyridine] gave a pEC50 of 5.38.

On to `O=C(Nc1cncc(-c2cnc3[nH]nc(-c4cc5c(-c6ccc(F)cc6)cccc5[nH]4)c3c2)c1)c1ccccc1` [Compound 32, N-(5-(3-(4-(4-Fluorophenyl)-1H-indol-2-yl)-1H-pyrazolo[3,4-b]pyridin-5-yl)pyridin-3-yl)benzamide], for which the negative-log EC50 (pEC50) was less than 5.00 and the inhibition at 10 µM was 17.7%.

As a reminder, the pEC50 is −log10 of the EC50, conventionally taken in molar units. A higher pEC50 goes with a low EC50. As a reminder, the inhibition is the relative decrease from the control value, in per cent.
